Experimental data taken from patent publication US4237116A, “Combination of thiopeptin and rumensin to improve ruminant feed efficiency” (Merck & Co., Inc., priority 1979, dated 1980).

Tested on: ruminants (cattle)
Experiment: Propionate content of rumen fluid in cattle given medicated feed (high roughage diet, then shifted to high grain diet)
Format: in vivo
Protocol: The synergistic effect of the combination of thiopeptin and rumensin has been observed by administering the two compounds to ruminants on a controlled diet and taking periodic samples of rumen fluid. The amount of each of the volatile fatty acids present in the rumen fluid is measured and compared with that of animals taking no medication and also with animals given only one of the two compounds. This effect has been observed in ruminants on diets of both the high roughage and high grain types. […] Animals given the same diet but with 8.25 ppm of thiopeptin in the diet for 7 days had 25.87 mole % of propionate. Animals given 16.5 ppm of rumensin for 7 days had 25.81 mole % of propionate. […] In the same test, the animal's feed was then shifted to a high grain diet and after 2 days rumen samples again taken. The control animals had 21.73 mole % of propionate. The thiopeptin treated animals (at the same dose as the first test) had 27.31 mole % propionate. The rumensin treated animals (again at the same dose as previously) had 25.95 mole % of propionate.

[1] = high roughage diet, drug in the diet for 7 days, thiopeptin 8.25 ppm, rumensin 16.5 ppm, combination 8.25 ppm + 16.5 ppm, control animals 24.16 mole %
[2] = same test after shift to high grain diet, rumen samples after 2 days, same doses (thiopeptin 8.25 ppm, rumensin 16.5 ppm, combination of both), control animals 21.73 mole %

Molecule	propionate in the rumen fluid [1]	propionate in the rumen fluid [2]
CC[C@@]1([C@H]2O[C@H]([C@H]3O[C@@](O)(CO)[C@H](C)C[C@@H]3C)C[C@H]2C)CC[C@H]([C@@]2(C)CC[C@]3(C[C@H](O)[C@@H](C)[C@@H]([C@H](C)[C@H](OC)[C@@H](C)C(=O)[O-])O3)O2)O1.[Na+] [rumensin, Rumensin]	25.81 mole %	25.95 mole %
Thiopeptin	25.87 mole %	27.31 mole %
